Reference: patent US5686486A, “4-hydroxy-benzopyran-2-ones and 4-hydroxy-cycloalkyl[b]pyran-2-ones useful to treat retroviral infections” (priority 1995, dated 1997)

Tests used:
HIV-1 protease [1] = target: T1, HIV-1 protease (Human immunodeficiency virus type 1 group M subtype B, UniProt P04585); experiment: biochemical; settings: for inhibition at 0.37 µM: read-out: HIV-1 Protease % Inhib, dose 0.370 uM; for inhibition at 1.1 µM: read-out: HIV-1 Protease % Inhib, dose 1.100 uM; for inhibition at 3.3 µM: read-out: HIV-1 Protease % Inhib, dose 3.300 uM; for inhibition at 10 µM: read-out: HIV-1 Protease % Inhib, dose 10.000 uM; for inhibition at 30 µM: read-out: HIV-1 Protease % Inhib, dose 30.000 uM; for inhibition at 0.123 µM: read-out: HIV-1 Protease % Inhib, dose 0.123 uM
Outline: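 Biotinylated, FITC-labeled peptide substrate (20 μl of 0.2 μM) incubated with HIV-1 protease (10 μl of 0.1 μM) and compound in 0.1 M sodium acetate pH 5.5, 1.0 M NaCl, 0.05% NP-40, 1 h, room temperature, dark. Streptavidin beads then capture uncleaved substrate; filtered labeled product read by fluorescence, giving percent inhibition.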

HIV-1 protease [2] = target: T1, HIV-1 protease; experiment: biochemical; settings: read-out: HIV-1 FITC KI
Outline: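 Ki from two-fold serial inhibitor dilutions (24–48 concentrations) with 40 nM HIV-1 protease stock and 200 μM substrate stock, 90 min at room temperature; stopped with avidin beads. Reference inhibitor run in parallel; Ki by nonlinear least-squares fit.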

| SMILES | inhibition at 0.37 µM (HIV-1 protease [1]) [%] | inhibition at 1.1 µM (HIV-1 protease [1]) [%] | inhibition at 3.3 µM (HIV-1 protease [1]) [%] | inhibition at 10 µM (HIV-1 protease [1]) [%] | inhibition at 30 µM (HIV-1 protease [1]) [%] | Ki (HIV-1 protease [2]) [nM] | inhibition at 0.123 µM (HIV-1 protease [1]) [%] |
| --- | --- | --- | --- | --- | --- | --- | --- |
| CC1(C)C2CCC1(CS(=O)(=O)Nc1cccc(C(c3c(O)c4c(oc3=O)CCCCCC4)C3CC3)c1)C(=O)C2 (stereo not drawn) [Example 333, N-[3-[Cyclopropyl(5,6,7,8,9,10-hexahydro-4-hydroxy-2-oxo-2H-cycloocta[b]pyran-3-yl)methyl]phenyl]-7,7-dimethyl-2-oxo-bicyclo[2.2.1]heptane-1-methanesulfonamide] | 28.3 | 62.2 | 82 | 102 | 110 | 104 | – |
| COc1cccc(Br)c1S(=O)(=O)Nc1cccc(C(c2c(O)c3c(oc2=O)CCCCCC3)C2CC2)c1 (stereo not drawn) [Example 337, 2-Bromo-N-[3-[cyclopropyl(5,6,7,8,9,10-hexahydro-4-hydroxy-2-oxo-2H-cycloocta[b]pyran-3-yl)methyl]phenyl]-6-methoxy-benzenesulfonamide] | 47.9 | 93.6 | 116 | 111 | 112 | 37.9 | 10.1 |
| Cc1noc(C)c1S(=O)(=O)Nc1cccc(C(c2c(O)c3c(oc2=O)CCCCCC3)C2CC2)c1 (stereo not drawn) [Example 338, N-[3-[Cyclopropyl(5,6,7,8,9,10-hexahydro-4-hydroxy-2-oxo-2H-cycloocta[b]pyran-3-yl)methyl]phenyl]-3,5-dimethyl-4-isoxazolesulfonamide] | 80.1 | 86.3 | 96.8 | 102 | 100 | 9.8 | 39.1 |
| O=c1oc2c(c(O)c1C(c1cccc(NS(=O)(=O)c3cccc4nsnc34)c1)C1CC1)CCCCCC2 (stereo not drawn) [Example 340, N-[3-[Cyclopropyl(5,6,7,8,9,10-hexahydro-4-hydroxy-2-oxo-2H-cycloocta[b]pyran-3-yl)methyl]phenyl]-2,1,3-benzothiadiazole-4-sulfonamide] | 93.2 | 90.9 | 96.5 | 101 | 96.5 | 1.9 | 77.8 |
| CCc1ccc(S(=O)(=O)Nc2cccc(C(c3c(O)c4c(oc3=O)CCCCCC4)C3CC3)c2)cc1 (stereo not drawn) [Example 341, N-[3-[Cyclopropyl(5,6,7,8,9,10-hexahydro-4-hydroxy-2-oxo-2H-cycloocta[b]pyran-3-yl)methyl]phenyl]-4-ethyl-benzenesulfonamide] | 92.8 | 110 | 107 | 120 | 122 | 5 | 59.4 |
| CCCCCCCCS(=O)(=O)Nc1cccc(C(c2c(O)c3c(oc2=O)CCCCCC3)C2CC2)c1 (stereo not drawn) [Example 343, N-[3-[Cyclopropyl(5,6,7,8,9,10-hexahydro-4-hydroxy-2-oxo-2H-cycloocta[b]pyran-3-yl)methyl]phenyl]-1-octanesulfonamide] | 75 | 91.2 | 104 | 112 | 105 | 6 | 39.4 |
| O=c1oc2c(c(O)c1C(c1cccc(NS(=O)(=O)CCc3ccccc3)c1)C1CC1)CCCCCC2 (stereo not drawn) [Example 346, N-[3-[Cyclopropyl(5,6,7,8,9,10-hexahydro-4-hydroxy-2-oxo-2H-cycloocta[b]pyran-3-yl)methyl]phenyl]-benzeneethanesulfonamide] | 92.5 | 97.3 | 102 | 103 | 97 | 3.85 | 75.1 |
| O=c1oc2c(c(O)c1C(c1cccc(NS(=O)(=O)c3ccc(-c4ccon4)s3)c1)C1CC1)CCCCCC2 (stereo not drawn) [Example 347, N-[3-[Cyclopropyl(5,6,7,8,9,10-hexahyro-4-hydroxy-2-oxo-2H-cycloocta[b]pyran-3-yl)methyl]phenyl]-5-(3-isoxazolyl)-2-thiophenesulfonamide] | 92.2 | 103 | 100 | 102 | 103 | 2.5 | 79.8 |
| O=c1oc2c(c(O)c1C(c1cccc(NS(=O)(=O)c3ccc(NO)cc3)c1)C1CC1)CCCCCC2 (stereo not drawn) [Example 348 (Second Title Compound), N-[3-[cyclopropyl(5,6,7,8,9,10-hexahydro-4-hydroxy-2-oxo-2H-cycloocta[b]pyran-3-yl)methyl]phenyl]4-(hydroxyamino)-benzenesulfonamide] | 81 | 102 | 109 | 113 | 98.7 | 1.7 | 38.6 |
| O=c1oc2c(c(O)c1C(c1cccc(NS(=O)(=O)c3ccc(NS(=O)(=O)c4ccccc4)cc3)c1)C1CC1)CCCCCC2 (stereo not drawn) [Example 349, N-[3-[Cyclopropyl(5,6,7,8,9,10-hexahydro-4-hydroxy-2-oxo-2H-cycloocta[b]pyran-3-yl)methyl]phenyl]4-[(phenylsulfonyl)amino]-benzenesulfonamide] | 38.4 | 69 | 86.4 | 96.7 | 88.5 | 33.8 | – |
| O=c1oc2c(c(O)c1C(c1cccc(NS(=O)(=O)c3cccc(NS(=O)(=O)c4ccccc4)c3)c1)C1CC1)CCCCCC2 (stereo not drawn) [Example 350, N-[3-[Cyclopropyl(5,6,7,8,9,10-hexahydro-4-hydroxy-2-oxo-2H-cycloocta[b]pyran-3-yl)methyl]phenyl]-3-[(phenylsulfonyl)amino]-benzenesulfonamide] | 64.3 | 82.2 | 98.3 | 102 | 101 | 6.6 | 22.2 |
| O=C(Nc1cccc(S(=O)(=O)Nc2cccc(C(c3c(O)c4c(oc3=O)CCCCCC4)C3CC3)c2)c1)c1ccccc1 (stereo not drawn) [Example 351, N-[3-[[[3-[Cyclopropyl(5,6,7,8,9,10-hexahydro4-hydroxy-2-oxo-2H-cycloocta[b]pyran-3-yl)methyl]phenyl]amino]sulfonyl]phenyl]-benzamide] | 49.3 | 76.6 | 93.9 | 97.8 | 95.8 | 16.4 | 11.2 |
| CN(C)c1ccc(S(=O)(=O)Nc2cccc(C(c3c(O)c4c(oc3=O)CCCCCC4)C3CC3)c2)cc1 (stereo not drawn) [Example 352, N-[3-[Cyclopropyl(5,6,7,8,9,10-hexahydro-4-hydroxy-2-oxo-2H-cycloocta[b]pyran-3-yl)methyl]phenyl]-4-(dimethylamino)-benzenesulfonamide] | 78.5 | 97.9 | 104 | 102 | 94.6 | 2.84 | 49.7 |
| Nc1cccc(S(=O)(=O)Nc2cccc(C(c3c(O)c4c(oc3=O)CCCCCC4)C3CC3)c2)c1 (stereo not drawn) [Example 353 (First Title Compound), 3-Amino-N-[3-[cyclopropyl(5,6,7,8,9,10-hexahydro-4-hydroxy-2-oxo-2H-cycloocta[b]pyran-3-yl)methyl]phenyl]-benzenesulfonamide] | 83.1 | 92.7 | 97.3 | 103 | 92.9 | 2.25 | 48.6 |
| O=c1oc2c(c(O)c1C(c1cccc(NS(=O)(=O)c3cccc(NO)c3)c1)C1CC1)CCCCCC2 (stereo not drawn) [Example 353 (Second Title Compound), N-[3-[Cyclopropyl(5,6,7,8,9, 10-hexahydro-4-hydroxy-2-oxo-2H-cycloocta[b]pyran-3-yl)methyl]phenyl]-3-(hydroxyamino)-benzenesulfonamide] | 92.7 | 103 | 110 | 113 | 107 | 2.4 | 61.4 |
| COC(=O)c1cccc(S(=O)(=O)Nc2cccc(C(c3c(O)c4c(oc3=O)CCCCCC4)C3CC3)c2)c1 (stereo not drawn) [Example 354, 3-[[[3-[Cyclopropyl(5,6,7,8,9,10-hexahydro-4-hydroxy-2-oxo-2H-cycloocta[b]pyran-3-yl)methyl]phenyl]amino]sulfonyl]-benzoic acid, methyl ester] | 86.4 | 96.1 | 100 | 103 | 108 | 1.45 | 71.4 |
| O=c1oc2c(c(O)c1C(c1cccc(NS(=O)(=O)c3cccc(NCCO)c3)c1)C1CC1)CCCCCC2 (stereo not drawn) [Example 355 (First Title Compound), N-[3-[Cyclopropyl(5,6,7,8,9,10-hexahydro4-hydroxy-2-oxo-2H-cycloocta[b]pyran-3-yl)methyl]phenyl]-3-[(2-ethanol)amino]-benzenesulfonamide] | 117 | 115 | 103 | 72.6 | 61.9 | 2.14 | 117 |
